In ChEMBL document CHEMBL5143640, “Diverse Sesquiterpenoids and Polyacetylenes from Atractylodes lancea and Their Anti-Osteoclastogenesis Activity” (J Nat Prod, 2022):
pIC50: −log10 of the molar value.

Key:
BMDM [1] = experiment: Anti-osteoclastogensis activity C57BL/6 mouse bone marrow macrophages assessed as inhibition of RANKL-induced osteoclastogenesis by measuring osteoclasts number at 1 to 10 uM and measured after 5 days in presence of M-CSF by TRAP staining based assay; assay type: functional, cell-based; conditions: dose 1-10 µM, time 5.0 day, DDE = dose-dependent effect
[2] = Anti-osteoclastogensis activity C57BL/6 mouse bone marrow macrophages assessed as inhibition of RANKL-induced osteoclastogenesis and measured after 5 days in presence of M-CSF by TRAP staining based assay; assay type: functional, cell-based; conditions: bmdm
BMDM [3] = experiment: Cytotoxicity against C57BL/6 mouse bone marrow macrophages assessed as reduction in cell viability at 10 uM incubated for 48 hrs in presence of M-CSF by CCK8 assay; assay type: toxicity, cell-based
BMDM [4] = experiment: Anti-osteoclastogensis activity C57BL/6 mouse bone marrow macrophages assessed as inhibition of RANKL-induced osteoclastogenesis by measuring osteoclasts size at 1 to 10 uM and measured after 5 days in presence of M-CSF by TRAP staining based assay; assay type: functional, cell-based; conditions: dose 1-10 µM, time 5.0 day, DDE = dose-dependent effect

Row | SMILES | Activity (BMDM [1]) | pIC50 [2] | Activity (BMDM [3]) | Activity (BMDM [4])
1 | OC/C=C/C#CC#C/C=C/c1ccco1 | Dde | 6.19 | Non-Toxic | Dde
2 | CC(=O)OCCC(/C=C/C=C/C#CC#C/C=C/CO)OC(C)=O (stereo not drawn) | Dde | 5.89 | Non-Toxic | Dde
